Test results as given in patent US20060240014A1, “Methods and compounds for the treatment of vascular stenosis” (Beth Israel Deaconess Medical Center, priority 2003, published 2006).
Counter-ions that a name gives are not always drawn.

System: human aortic vascular smooth muscle cells (HASOM cells)
Assay: hPDGF-BB induced migration of human aortic vascular smooth muscle cells (Boyden chamber)
Assay type: cell-based
Conditions: 20 ng/ml hPDGF-BB, 48 hours drug pre-incubation, 12 hours migration, dose dependent (FIG. 1)
Description: Drug concentrations for G are in ng/mL and for R are in pg/mL. The first lane has no PDGF added and the first two lanes have no drug compounds added. The results are expressed as means±S.E.M. of triplicate readings.
In vitro studies were performed to examine the dose response of Gleevec and rapamycin on human aortic vascular smooth muscle cells (HASOM cells). Cell migration was measured using a 24-well Boyden-chamber (Corning Costar Corp, Cambridge, Mass.). […] These membranes were coated with 0.1% gelatin for eight hours, then aspirated and allowed to dry for two hours. The cells were allowed to grow to 70% confluence and then treated with media containing 1% fetal calf serum and drug compounds (Gleevec alone, rapamycin alone and Gleevec and rapamycin together at the concentrations indicated in FIG. 1) for 48 hours prior to the migration assay. […] The cells were harvested in 0.05% trypsin, resuspended in M-199 media, and seeded on the coated membrane at a concentration of 4000 cells per well with Gleevec and/or rapamycin. The M-199 media containing 0.5% BSA and 20 ng/ml human PDGF-B (hPDGF-BB) was placed in the bottom Boyden chamber. Cells were incubated in 5% CO2 at 37° C. for 12 hours and the cells lying on the upper surface of the membrane were scraped. […] Cell migration was quantified by counting the cells in five random high-power fields on the lower surface of the membrane. […]

Cc1ccc(NC(=O)c2ccc(CN3CCN(C)CC3)cc2)cc1Nc1nccc(-c2cccnc2)n1 [Gleevec, imatinib mesylate]
inhibition of PDGF induced migration of HASOM cells: potently inhibited
